Usually IC50 stands for the concentration needed to halve the response being measured.

The source of these data is ChEMBL document CHEMBL3638769, “Inhibitors of STAT3” (2015).

Chain of Signal transducer and activator of transcription 3 (P40763 whole entry): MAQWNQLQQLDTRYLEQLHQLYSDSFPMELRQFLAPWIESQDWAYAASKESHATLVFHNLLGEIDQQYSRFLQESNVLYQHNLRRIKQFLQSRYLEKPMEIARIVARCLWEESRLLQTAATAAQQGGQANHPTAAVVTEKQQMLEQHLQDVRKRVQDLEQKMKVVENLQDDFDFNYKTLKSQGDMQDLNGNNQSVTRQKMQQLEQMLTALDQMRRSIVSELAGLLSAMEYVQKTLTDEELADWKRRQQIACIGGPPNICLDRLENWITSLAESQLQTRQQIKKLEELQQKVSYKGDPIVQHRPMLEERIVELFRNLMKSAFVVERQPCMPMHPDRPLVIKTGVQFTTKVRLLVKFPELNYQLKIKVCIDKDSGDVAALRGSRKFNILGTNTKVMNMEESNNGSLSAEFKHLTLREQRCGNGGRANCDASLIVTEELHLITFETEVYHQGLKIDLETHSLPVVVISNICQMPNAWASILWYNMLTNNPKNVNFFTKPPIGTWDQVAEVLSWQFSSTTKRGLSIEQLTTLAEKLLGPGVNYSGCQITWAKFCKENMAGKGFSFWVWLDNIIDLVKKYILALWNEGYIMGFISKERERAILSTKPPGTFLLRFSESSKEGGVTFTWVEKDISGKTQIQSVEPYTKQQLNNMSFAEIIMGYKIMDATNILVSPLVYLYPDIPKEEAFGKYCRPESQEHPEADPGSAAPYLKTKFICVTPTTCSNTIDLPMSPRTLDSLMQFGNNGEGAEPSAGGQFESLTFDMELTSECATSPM

The assay has as its target Signal transducer and activator of transcription 3 (Homo sapiens, UniProt P40763). As to the kind of experiment: EMSA Based Assay: A screening process evaluated in vitro disruption of STAT3(dimer)-DNA formation through a previously published EMSA based assays, giving a valuable insight into the inhibitor's mode of action against the STAT3 homo-dimer. For orientation: A gel shift assay detects complexes by their altered migration in electrophoresis.
The molecule `CCCCCCNC(=O)c1nc(-c2cccc3ccccc23)sc1Cc1ccc(OP(=O)(O)O)cc1` yielded a half-inhibitory concentration (IC50) of 25 µM.
To `O=C(Nc1ccc(C2CCCCC2)cc1)c1nc(-c2ccccc2)oc1Cc1ccc(OP(=O)(O)O)cc1` belongs 33 µM; to `CCCCCCNC(=O)c1nc(-c2cccc3ccccc23)oc1Cc1ccc(OP(=O)(O)O)cc1`, 58 µM; to `O=C(O)c1nc(-c2ccccc2)oc1Cc1ccc(OP(=O)(O)O)cc1`, > 1000 µM.
To `CCCCCCNC(=O)c1nc(-c2ccccc2)oc1Cc1ccc(OP(=O)(O)O)cc1` belongs > 1000 µM; to `CCCCCCNC(=O)c1nc(-c2ccccc2)sc1Cc1ccc(OP(=O)(O)O)cc1`, 150 µM; to `O=C(Nc1ccc(C2CCCCC2)cc1)c1nc(-c2ccccc2)sc1Cc1ccc(OP(=O)(O)O)cc1`, 775 µM.
To `O=C(Nc1ccc(C2CCCCC2)cc1)c1nc(-c2ccccc2)oc1Cc1ccc(O)cc1` belongs > 1000 µM; to `O=C(Nc1ccc(C2CCCCC2)cc1)c1nc(-c2cccc3ccccc23)oc1Cc1ccc(OP(=O)(O)O)cc1`, 255 µM; to `O=C(Nc1ccc(C2CCCCC2)cc1)c1nc(-c2cccc3ccccc23)sc1Cc1ccc(OP(=O)(O)O)cc1`, 350 µM.
